Measurements as given in ChEMBL document CHEMBL1201862, “PubChem BioAssay data set” (2004).
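Assay format: 96-well plates, 48-hour exposure. GI50 is the concentration that inhibits growth by half.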 Calls of active or inactive are those of the source. Cut-off read from the data, not from the text of the source: active = GI50 up to about 1.1 µM and inactive = higher.

Legend:
Assay in all cases: NCI anticancer screen, dose series, 48 h
T47D = tested on: T47D
MDA-MB-435 = tested on: MDA-MB-435
BT-549 = tested on: BT-549
CCRF-CEM = tested on: CCRF-CEM
COLO 205 = tested on: COLO 205
Hs-578T = tested on: Hs-578T
SK-MEL-28 = tested on: SK-MEL-28
HT-29 = tested on: HT-29
MDA-MB-231 = tested on: MDA-MB-231
DU-145 = tested on: DU-145
CAKI-1 = tested on: CAKI-1
RXF 393 = tested on: RXF 393
NCI-H522 = tested on: NCI-H522
NCI-H23 = tested on: NCI-H23
HCT-116 = tested on: HCT-116
RPMI-8226 = tested on: RPMI-8226
HCT-15 = tested on: HCT-15
SNB-19 = tested on: SNB-19
UACC-257 = tested on: UACC-257
A549 = tested on: A549
OVCAR-3 = tested on: OVCAR-3
OVCAR-4 = tested on: OVCAR-4
PC-3 = tested on: PC-3
A498 = tested on: A498
NCI-H226 = tested on: NCI-H226
OVCAR-5 = tested on: OVCAR-5
SF-268 = tested on: SF-268
MDA-N = tested on: MDA-N
786-0 = tested on: 786-0
SK-OV-3 = tested on: SK-OV-3
OVCAR-8 = tested on: OVCAR-8
M14 = tested on: M14
SNB-75 = tested on: SNB-75
SK-MEL-2 = tested on: SK-MEL-2
KM12 = tested on: KM12
UO-31 = tested on: UO-31
Malme-3M = tested on: Malme-3M
IGROV-1 = tested on: IGROV-1
MOLT-4 = tested on: MOLT-4
HOP-62 = tested on: HOP-62
NCI/ADR-RES = tested on: NCI/ADR-RES
SK-MEL-5 = tested on: SK-MEL-5
TK-10 = tested on: TK-10
SW-620 = tested on: SW-620
U-251 = tested on: U-251
SR = tested on: SR
SN12C = tested on: SN12C
HCC 2998 = tested on: HCC 2998
MCF7 = tested on: MCF7
EKVX = tested on: EKVX
K562 = tested on: K562
UACC-62 = tested on: UACC-62
SF-295 = tested on: SF-295
ACHN = tested on: ACHN

CC(C)N/C(=N\C#N)NS(=O)(=O)c1cnccc1NC1CCCCCCC1
GI50 (T47D): > 100 µM (inactive)
GI50 (MDA-MB-435): > 100 µM (inactive)
GI50 (BT-549): > 100 µM (inactive)
GI50 (CCRF-CEM): > 100 µM (inactive)
GI50 (COLO 205): > 100 µM (inactive)
GI50 (Hs-578T): > 100 µM (inactive)
GI50 (SK-MEL-28): > 100 µM (inactive)
GI50 (HT-29): > 100 µM (inactive)
GI50 (MDA-MB-231): > 100 µM (inactive)
GI50 (DU-145): > 100 µM (inactive)
GI50 (CAKI-1): > 100 µM (inactive)
GI50 (RXF 393): > 100 µM (inactive)
GI50 (NCI-H522): > 100 µM (inactive)
GI50 (NCI-H23): > 100 µM (inactive)
GI50 (HCT-116): > 100 µM (inactive)
GI50 (RPMI-8226): 39.8 µM (inactive)
GI50 (HCT-15): > 100 µM
GI50 (SNB-19): > 100 µM (inactive)
GI50 (UACC-257): > 100 µM (inactive)
GI50 (A549): > 100 µM (inactive)
GI50 (OVCAR-3): > 100 µM (inactive)
GI50 (OVCAR-4): > 100 µM (inactive)
GI50 (PC-3): > 100 µM (inactive)
GI50 (A498): > 100 µM (inactive)
GI50 (NCI-H226): > 100 µM (inactive)
GI50 (OVCAR-5): > 100 µM (inactive)
GI50 (SF-268): > 100 µM (inactive)
GI50 (MDA-N): > 100 µM (inactive)
GI50 (786-0): > 100 µM (inactive)
GI50 (SK-OV-3): > 100 µM (inactive)
GI50 (OVCAR-8): > 100 µM (inactive)
GI50 (M14): > 100 µM (inactive)
GI50 (SNB-75): > 100 µM (inactive)
GI50 (SK-MEL-2): > 100 µM (inactive)
GI50 (KM12): > 100 µM (inactive)
GI50 (UO-31): > 100 µM (inactive)
GI50 (Malme-3M): > 100 µM (inactive)
GI50 (IGROV-1): > 100 µM (inactive)
GI50 (MOLT-4): > 100 µM (inactive)
GI50 (HOP-62): > 100 µM (inactive)
GI50 (NCI/ADR-RES): > 100 µM (inactive)
GI50 (SK-MEL-5): > 100 µM (inactive)
GI50 (TK-10): > 100 µM (inactive)
GI50 (SW-620): > 100 µM (inactive)
GI50 (U-251): > 100 µM (inactive)
GI50 (SR): > 100 µM (inactive)
GI50 (SN12C): > 100 µM (inactive)
GI50 (HCC 2998): > 100 µM (inactive)
GI50 (MCF7): > 100 µM (inactive)
GI50 (EKVX): > 100 µM (inactive)
GI50 (K562): > 100 µM (inactive)
GI50 (UACC-62): > 100 µM (inactive)
GI50 (SF-295): > 100 µM (inactive)
GI50 (ACHN): > 100 µM (inactive)
